Reference: US10723753B2, “Ras inhibitors and uses thereof” (Dana-Farber Cancer Institute, Inc., priority 2013, dated 2020)

Molecular target: K-Ras G12C (Homo sapiens, UniProt P01116, G12C)
Assay: Fluorescence polarization assay of K-Ras G12C binding to Oregon green labelled RBD
Details: for EC50: Ras:Raf (RBD) binding, 95% CI given alongside, read-out: EC50 of nucleotide:Ras complex for RBD
Source text: Oregon green (OG) fluorescent dye was coupled to this cysteine in RBD using maleimide chemistry resulting in covalent addition of one OG, as verified by chromatography and mass spectrometry.
This allowed the testing of multiple nucleotides for their ability to induce Ras:Raf binding.

SMILES | Effect on binding of G12C K-Ras to the RBD protein (added at a 1:10 molar ratio to G12C K-Ras prior to the assay) | EC50 (fluorescence polarization) [nM] | Interaction of ligand-bound K-Ras G12C with RBD (fluorescence polarization, OG-labelled RBD, recombinant K-Ras G12C bound to the named ligand)
CCCC(CCC)COC(=O)[C@H](C)NP(=O)(OCCNC(=O)CCl)OP(=O)(O)OC[C@H]1O[C@@H](n2cnc3c(=O)[nH]c(N)nc32)[C@H](O)[C@@H]1O (stereo partly drawn) [Example 3, (2S)-2-propylpentyl 2-(((((((2R,3S,4R,5R)-5-(2-amino-6-oxo-1H-purin-9(6H)-yl)-3,4-dihydroxytetrahydrofuran-2-yl)methoxy)(hydroxy)phosphoryl)oxy)(2-(2-chloroacetamido)ethoxy)phosphoryl)amino)propanoate] | appeared to prevent binding | – | –
Nc1nc2c(ncn2[C@@H]2O[C@H](COP(=O)(O)OP(=O)(O)O)[C@@H](O)[C@H]2O)c(=O)[nH]1 [GDP] | – | 108 | –
Nc1nc2c(ncn2[C@@H]2O[C@H](COP(=O)(O)OP(=O)(O)OP(=O)(O)O)[C@@H](O)[C@H]2O)c(=O)[nH]1 [GTP] | – | 26 | higher affinity for RBD than the GDP bound form
